Reference: US20260015360A1 (MOMA Therapeutics, Inc., priority 2023, published 2026)

Biological target: T1, biotinylated Avi-POLΘ[2-894] (Homo sapiens, UniProt O75417)
T1 construct: 1 nM biotinylated Avi-POLΘ[2-894]
Assay: ATPase assay (ADP-Glo): POLΘ-mediated ATP hydrolysis
Details: read-out: Biochemical ATPase ADPGlo IC50

T1 sequence (O75417 2-894 limits assumed): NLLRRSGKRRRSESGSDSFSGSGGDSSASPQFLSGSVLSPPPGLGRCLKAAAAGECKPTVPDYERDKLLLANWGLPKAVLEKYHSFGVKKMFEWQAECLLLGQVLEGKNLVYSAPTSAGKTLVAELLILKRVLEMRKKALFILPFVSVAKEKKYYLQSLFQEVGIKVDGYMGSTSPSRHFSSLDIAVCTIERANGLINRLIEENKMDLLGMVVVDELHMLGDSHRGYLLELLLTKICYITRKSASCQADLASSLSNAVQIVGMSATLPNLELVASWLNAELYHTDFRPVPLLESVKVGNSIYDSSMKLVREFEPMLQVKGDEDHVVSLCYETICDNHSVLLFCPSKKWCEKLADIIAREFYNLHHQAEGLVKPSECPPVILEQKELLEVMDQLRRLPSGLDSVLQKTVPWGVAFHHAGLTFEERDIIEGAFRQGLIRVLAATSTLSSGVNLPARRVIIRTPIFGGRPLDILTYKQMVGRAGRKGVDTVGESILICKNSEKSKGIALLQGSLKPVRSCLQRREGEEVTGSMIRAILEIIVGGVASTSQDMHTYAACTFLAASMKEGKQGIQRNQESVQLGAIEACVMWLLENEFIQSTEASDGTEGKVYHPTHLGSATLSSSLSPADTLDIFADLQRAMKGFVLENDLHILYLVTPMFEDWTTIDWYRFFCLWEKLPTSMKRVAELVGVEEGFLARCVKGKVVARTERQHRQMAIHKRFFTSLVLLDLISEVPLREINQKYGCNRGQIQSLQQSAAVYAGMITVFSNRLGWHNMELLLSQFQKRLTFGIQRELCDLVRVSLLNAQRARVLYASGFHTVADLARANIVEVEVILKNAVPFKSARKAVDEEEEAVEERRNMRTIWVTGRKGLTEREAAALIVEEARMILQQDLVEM

Structure (SMILES)	IC50 [nM]
COc1cnc(Cl)cc1-c1cc(C)ncc1C(=O)Nc1nc2ncc(N3CCO[C@@H](C)[C@@H]3C)nc2s1 (single isomer, unassigned) [Example 415, 2′-chloro-N-(6-((2S or R,3S or R)-2,3-dimethylmorpholino)thiazolo [4,5-b]pyrazin-2-yl)-5′-methoxy-6-methyl-[4,4′-bipyridine]-3-carboxamide]	15 to 50
COc1cnc(Cl)cc1-c1cc(C)ncc1C(=O)Nc1nc2ncc(N3CC[C@@H](CO)C3)nc2s1 [Example 501, (R)-2′-chloro-N-(6-(3-(hydroxymethyl)pyrrolidin-1-yl)thiazolo[4,5-b]pyrazin-2-yl)-5′-methoxy-6-methyl-[4,4′-bipyridine]-3-carboxamide]	1 to 15
COc1cnc(Cl)cc1-c1cc(C)ncc1C(=O)Nc1nc2ncc(N3C[C@@H](C)OC[C@@H]3C)nc2s1 [Example 419, 2′-chloro-N-(6-((2R,5S)-2,5-dimethylmorpholino)thiazolo [4,5-b]pyrazin-2-yl)-5′-methoxy-6-methyl-[4,4′-bipyridine]-3-carboxamide]	1 to 15
COc1cnc(Cl)cc1-c1cc(C)ncc1C(=O)Nc1nc2ncc(N3[C@H](C)COC[C@@H]3C)nc2s1 [Example 404, 2′-chloro-N-(6-((3R,5S)-3,5-dimethylmorpholino)thiazolo [4,5-b]pyrazin-2-yl)-5′-methoxy-6-methyl-[4,4′-bipyridine]-3-carboxamide]	15 to 50
Cc1cc(-c2nn(C)c3ccncc23)c(C(=O)Nc2nc3ncc(-c4ccncc4)nc3s2)cn1 [Example 517, 6-methyl-4-(1-methyl-1H-pyrazolo[4,3-c]pyridin-3-yl)-N-(6-(pyridin-4-yl)thiazolo[4,5-b]pyrazin-2-yl)nicotinamide]	> 900
COc1cnc(Cl)cc1-c1cc(Oc2cccc(N)c2)ncc1C(=O)Nc1nn2cc(C3CC3)nc2s1 [Example 494, 6-(3-aminophenoxy)-2′-chloro-N-(6-cyclopropylimidazo[2,1-b][1,3,4]thiadiazol-2-yl)-5′-methoxy-[4,4′-bipyridine]-3-carboxamide]	15 to 50
COc1cnc(Cl)cc1-c1cc(C)ncc1C(=O)Nc1nc2ncc(N3CCO[C@@H]4CCC[C@@H]43)nc2s1 [Example 395, 2′-chloro-N-(6-((4aS,7aR)-hexahydrocyclopenta[b][1,4]oxazin-4(4aH)-yl)thiazolo[4,5-b]pyrazin-2-yl)-5′-methoxy-6-methyl-[4,4′-bipyridine]-3-carboxamide]	15 to 50
COc1cnc(Cl)cc1-c1cc(C)ncc1C(=O)Nc1nc2ncc(N3CCO[C@@H](C)[C@H]3C)nc2s1 (single isomer, unassigned) [Example 408, 2′-chloro-N-(6-((2S or R,3R or S)-2,3-dimethylmorpholino)thiazolo [4,5-b]pyrazin-2-yl)-5′-methoxy-6-methyl-[4,4′-bipyridine]-3-carboxamide]	1 to 15
COc1cnc(Cl)cc1-c1cc(C)ncc1C(=O)Nc1nc2ncc(N3[C@H](C)COC[C@H]3C)nc2s1 [Example 423, 2′-chloro-N-(6-((3R,5R)-3,5-dimethylmorpholino)thiazolo [4,5-b]pyrazin-2-yl)-5′-methoxy-6-methyl-[4,4′-bipyridine]-3-carboxamide]	1 to 15
COc1cnc(Cl)cc1-c1cc(C)ncc1C(=O)Nc1nn2cc(C(=O)N[C@H]3CC[C@@H](O)CC3)nc2s1 [Example 292]	1 to 15
COc1cnc(Cl)cc1-c1cc(C)ncc1C(=O)Nc1nc2ncc(C3CCOC3)cc2s1 (single isomer, unassigned) [Example 516, (S or R)-2′-chloro-5′-methoxy-6-methyl-N-(6-(tetrahydrofuran-3-yl)thiazolo[4,5-b]pyridin-2-yl)-[4,4′-bipyridine]-3-carboxamide]	1 to 15
COc1ccccc1-c1cc(C)ncc1C(=O)Nc1nc2ccc(Br)cc2o1 [Example 54, N-(6-Bromobenzo[d]oxazol-2-y1)-4-(2-methoxyphenyl)-6-methylnicotinamide]	15 to 50
COc1cnc(Cl)cc1-c1cc(C)ncc1C(=O)Nc1nc2ncc(N3CC(CO)C3)nc2s1 [Example 505, 2′-chloro-N-(6-(3-(hydroxymethyl)azetidin-1-yl)thiazolo[4,5-b]pyrazin-2-yl)-5′-methoxy-6-methyl-[4,4′-bipyridine]-3-carboxamide]	1 to 15
COc1cnc(Cl)cc1-c1cc(C)ncc1C(=O)Nc1nn2cc(C3CCC(CO)C3)nc2s1 (racemic) [Example 270]	15 to 50
COc1cnc(Cl)cc1-c1cc(C)ncc1C(=O)Nc1nc2ncc(C3(O)CCOCC3)nc2s1 [Example 390, 2′-chloro-N-(6-(4-hydroxytetrahydro-2H-pyran-4-yl)thiazolo[4,5-b]pyrazin-2-yl)-5′-methoxy-6-methyl-[4,4′-bipyridine]-3-carboxamide]	15 to 50
COc1cnc(Cl)cc1-c1cc(C)ncc1C(=O)Nc1nc2ncc(N3CCC(N(C)C)CC3)nc2s1 [Example 469, 2′-chloro-N-(6-(4-(dimethylamino)piperidin-1-yl)thiazolo[4,5-b]pyrazin-2-yl)-5′-methoxy-6-methyl-[4,4′-bipyridine]-3-carboxamide]	1 to 15

Structure (SMILES)	IC50 [nM]
COc1ccc(C#N)cc1-c1cc(C)ncc1C(=O)Nc1nn2cc(C(=O)N(C)C)nc2s1 [Example 316, 2-(4-(5-cyano-2-methoxyphenyl)-6-methylnicotinamido)-N,N-dimethylimidazo[2,1-b][1,3,4]thiadiazole-6-carboxamide]	15 to 50
COc1cnc(Cl)cc1-c1cc(Oc2cc(N)cc(Cl)c2)ncc1C(=O)Nc1nn2cc(C3CC3)nc2s1 [Example 493, 6-(3-amino-5-chlorophenoxy)-2′-chloro-N-(6-cyclopropylimidazo[2,1-b][1,3,4]thiadiazol-2-yl)-5′-methoxy-[4,4′-bipyridine]-3-carboxamide]	50 to 150
CNC1CCN(c2cnc3nc(NC(=O)c4cnc(C)cc4-c4cc(Cl)ncc4OC)sc3n2)CC1 [Example 477, 2′-chloro-5′-methoxy-6-methyl-N-(6-(4-(methylamino)piperidin-1-yl)thiazolo[4,5-b]pyrazin-2-yl)-[4,4′-bipyridine]-3-carboxamide]	15 to 50
COc1cnc(Cl)cc1-c1cc(C)ncc1C(=O)Nc1nc2ncc(N3CCOC(C)C3C)nc2s1 (centres unmarked) [Example 425, 2′-chloro-N-(6-(2,3-dimethylmorpholino)thiazolo [4,5-b]pyrazin-2-yl)-5′-methoxy-6-methyl-[4,4′-bipyridine]-3-carboxamide]	1 to 15
COc1cnc(Cl)cc1-c1cc(C)ncc1C(=O)Nc1nc2ncc(N3CC(O)C3)nc2s1 [Example 503, 2′-chloro-N-(6-(3-hydroxyazetidin-1-yl)thiazolo[4,5-b]pyrazin-2-yl)-5′-methoxy-6-methyl-[4,4′-bipyridine]-3-carboxamide]	1 to 15
COc1cnc(Cl)cc1-c1cc(C)ncc1C(=O)Nc1nn2cc(C(=O)N[C@H]3C[C@](O)(C(F)(F)F)C3)nc2s1 [Example 32, 2-(2′-chloro-5′-methoxy-6-methyl-[4,4′-bipyridine]-3-carboxamido)-N-((1s,3s)-3-hydroxy-3-(trifluoromethyl)cyclobutyl)imidazo[2,1-b][1,3,4]thiadiazole-6-carboxamide]	> 900
COc1cnc(Cl)cc1-c1cc(C)ncc1C(=O)Nc1nc2ncc(C3CCOC3)nc2s1 (single isomer, unassigned) [Example 473, (R or S)-2′-chloro-5′-methoxy-6-methyl-N-(6-(tetrahydrofuran-3-yl)thiazolo[4,5-b]pyrazin-2-yl)-[4,4′-bipyridine]-3-carboxamide]	15 to 50
COc1ccccc1-c1cc(C)ncc1C(=O)Nc1nc2ncc(C(F)(F)F)cc2s1 [Example 116]	15 to 50
COc1cnc(Cl)cc1-c1cc(C)ncc1C(=O)Nc1nc2ncc(N3C[C@@H](C)O[C@@H](C)C3)nc2s1 [Example 437, 2′-chloro-N-(6-((2S,6R)-2,6-dimethylmorpholino)thiazolo [4,5-b]pyrazin-2-yl)-5′-methoxy-6-methyl-[4,4′-bipyridine]-3-carboxamide]	1 to 15
COc1cnc(Cl)cc1-c1cc(C)ncc1C(=O)Nc1nc2ncc(N3CCO[C@H]4CCC[C@@H]43)nc2s1 [Example 393, 2′-chloro-N-(6-((4aS,7aS)-hexahydrocyclopenta[b][1,4]oxazin-4(4aH)-yl)thiazolo[4,5-b]pyrazin-2-yl)-5′-methoxy-6-methyl-[4,4′-bipyridine]-3-carboxamide]	15 to 50
Cc1cc(N2CCC3(CNC(=O)C3)C2)c(C(=O)Nc2nc3ncc(-c4ccncc4)cc3s2)cn1 (racemic) [Example 201]	> 900
CC(=O)N1CC2(C1)CN(c1cc(C)ncc1C(=O)Nc1nc3ncc(-c4ccncc4)cc3s1)C2 [Example 202]	> 900
COc1cnc(Cl)cc1-c1cc(Oc2cccc(NC(=O)OC(C)(C)C)c2)ncc1C(=O)Nc1nn2cc(C3CC3)nc2s1 [Example 495, tert-butyl (3-((2′-chloro-5-((6-cyclopropylimidazo[2,1-b][1,3,4]thiadiazol-2-yl)carbamoyl)-5′-methoxy-[4,4′-bipyridin]-2-yl)oxy)phenyl)carbamate]	150 to 900
COc1ccc(C#N)cc1-c1cc(C)ncc1C(=O)Nc1nc2ncc(N3CCC(O)(C(F)F)CC3)nc2s1 (single isomer, unassigned) [Example 418, 4-(5-cyano-2-methoxyphenyl)-N-(6-(4-(difluoromethyl)-4-hydroxypiperidin-1-yl)thiazolo[4,5-b]pyrazin-2-yl)-6-methylnicotinamide]	1 to 15
COc1ccccc1-c1cc(C)ncc1C(=O)Nc1nn2cc(C3CC3)nc2s1 [Example 168, N-(6-cyclopropylimi-dazo[2,1-b][1,3,4]thiadiazol-2-yl)-4-(2-methoxyphenyl)-6-methylnicotinamide]	150 to 900
COc1cnc(Cl)cc1-c1cc(C)ncc1C(=O)Nc1nc2ncc(C3CCOC3)nc2s1 (single isomer, unassigned) [Example 479, (S or R)-2′-chloro-5′-methoxy-6-methyl-N-(6-(tetrahydrofuran-3-yl)thiazolo[4,5-b]pyrazin-2-yl)-[4,4′-bipyridine]-3-carboxamide]	1 to 15
